In patent US10765114B2, “4-amino-6-(pyridyl and 2-substitutedphenyl)-picolinates and 6-amino-2-(pyridyl and 2-substitutedphenyl)-pyrimidine-4-carboxylates and their use as herbicides” (Dow AgroSciences LLC, priority 2013, dated 2020):
Where two headings read alike, the source gives them in different places. Blank lines part the entries; values can stand above or below the molecule they belong to.

Key:
[1] = system: Key Broadleaf Weed and Crop Species; assay: Post-Emergent Test II (Table 5); assay type: in vivo; settings: post-emergence, 336 h; for pest or weed control at 70 g/ha: application rate 70 (kg ai/ha; footnote: g ai/ha); for pest or weed control at 140 g/ha: application rate 140 (kg ai/ha; footnote: g ai/ha)
Procedure, shortened: (§1)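 Visual injury ratings (0 = no injury, 100 = complete kill) taken 14 days after treatment, relative to untreated controls. Compounds, in an acetone/DMSO aqueous carrier with crop oil and surfactant, were applied by track sprayer at 187 L/ha, in a twofold dilution series from the top rate, to plants at the first to second true-leaf stage.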

[2] = system: Key Grass and Sedge Weeds as well as Grass Crops; assay: Post-Emergent Test II (Table 6); assay type: in vivo; settings: post-emergence, 336 h, 14 days after application; for pest or weed control at 70 g/ha: 70 g ai/ha; for pest or weed control at 140 g/ha: 140 g ai/ha
Procedure, shortened: as §1

[3] = Abutilon theophrasti, ABUTH: velvetleaf (Abutilon theophrasti), read-out: Visual Growth Reduction (%) 14 Days After Application ABUTH
[4] = Amaranthus retroflexus, AMARE: redroot pigweed (Amaranthus retroflexus), read-out: Visual Growth Reduction (%) 14 Days After Application AMARE
[5] = Brassica napus, BRSSS: oilseed rape, canola (Brassica napus), read-out: Visual Growth Reduction (%) 14 Days After Application BRSSS
[6] = Chenopodium album, CHEAL: lambsquarters (Chenopodium album), read-out: Visual Growth Reduction (%) 14 Days After Application CHEAL
[7] = Euphorbia heterophylla, EPHHL: wild poinsettia (Euphorbia heterophylla), read-out: Visual Growth Reduction (%) 14 Days After Application EPHHL
[8] = Helianthus annuus, HELAN: sunflower (Helianthus annuus), read-out: Visual Growth Reduction (%) 14 Days After Application HELAN
[9] = Viola tricolor, VIOTR: wild pansy (Viola tricolor), read-out: Visual Growth Reduction (%) 14 Days After Application VIOTR
[10] = CYPSS, read-out: Visual Growth Reduction (%) 14 Days After Application CYPSS
[11] = DIGSA: crabgrass (Digitaria sanguinalis), read-out: Visual Growth Reduction (%) 14 Days After Application DIGSA
[12] = ECHSS, read-out: Visual Growth Reduction (%) 14 Days After Application ECHSS
[13] = ORYSS (crop), read-out: Visual Growth Reduction (%) 14 Days After Application ORYSS
[14] = SETFA: giant foxtail (Setaria faberi), read-out: Visual Growth Reduction (%) 14 Days After Application SETFA
[15] = SORVU: grain sorghum (Sorghum vulgare), read-out: Visual Growth Reduction (%) 14 Days After Application SORVU
[16] = TRZSS (crop), read-out: Visual Growth Reduction (%) 14 Days After Application TRZSS
[17] = ZEAMX: maize, corn (Zea mays), read-out: Visual Growth Reduction (%) 14 Days After Application ZEAMX

melting point: 184 °C (dec.)
SMILES: Nc1cc(-c2ccc(Cl)nc2Cl)nc(C(=O)O)c1Cl [Compound 1, 4-amino-2′,5,6′-trichloro-[2,3′-bipyridine]-6-carboxylic acid]
pest or weed control at 70 g/ha [1, 3]: 30 to 44%
pest or weed control at 140 g/ha [1, 3]: 75 to 84%
pest or weed control at 70 g/ha [1, 4]: 95 to 100%
pest or weed control at 140 g/ha [1, 4]: 95 to 100%
pest or weed control at 70 g/ha [1, 5]: 85 to 94%
pest or weed control at 140 g/ha [1, 5]: 95 to 100%
pest or weed control at 70 g/ha [1, 6]: 85 to 94%
pest or weed control at 140 g/ha [1, 6]: 95 to 100%
pest or weed control at 70 g/ha [1, 7]: 0 to 29%
pest or weed control at 140 g/ha [1, 7]: 0 to 29%
pest or weed control at 70 g/ha [1, 8]: 75 to 84%
pest or weed control at 140 g/ha [1, 8]: 85 to 94%
pest or weed control at 70 g/ha [1, 9]: 0 to 29%
pest or weed control at 140 g/ha [1, 9]: 30 to 44%
pest or weed control at 70 g/ha [2, 10]: 0 to 29%
pest or weed control at 140 g/ha [2, 10]: 0 to 29%
pest or weed control at 70 g/ha [2, 11]: 0 to 29%
pest or weed control at 140 g/ha [2, 11]: 0 to 29%
pest or weed control at 70 g/ha [2, 12]: 0 to 29%
pest or weed control at 140 g/ha [2, 12]: 0 to 29%
pest or weed control at 70 g/ha [2, 13]: 0 to 29%
pest or weed control at 140 g/ha [2, 13]: 0 to 29%
pest or weed control at 70 g/ha [2, 14]: 0 to 29%
pest or weed control at 140 g/ha [2, 14]: 0 to 29%
pest or weed control at 70 g/ha [2, 15]: 0 to 29%
pest or weed control at 140 g/ha [2, 15]: 0 to 29%
pest or weed control at 70 g/ha [2, 16]: 0 to 29%
pest or weed control at 140 g/ha [2, 16]: 0 to 29%
pest or weed control at 70 g/ha [2, 17]: 0 to 29%
pest or weed control at 140 g/ha [2, 17]: 0 to 29%

melting point: 133 to 134 °C
SMILES: COc1nc(C(F)(F)F)ccc1-c1nc(C(=O)O)c(Cl)c(N)c1F [Compound 2, 4-amino-5-chloro-3-fluoro-2′-methoxy-6′-(trifluoromethyl)-[2,3′-bipyridine]-6-carboxylic acid]
pest or weed control at 70 g/ha [1, 3]: 0 to 29%
pest or weed control at 140 g/ha [1, 3]: 0 to 29%
pest or weed control at 70 g/ha [1, 4]: 0 to 29%
pest or weed control at 140 g/ha [1, 4]: 0 to 29%
pest or weed control at 70 g/ha [1, 5]: 30 to 44%
pest or weed control at 140 g/ha [1, 5]: 45 to 59%
pest or weed control at 70 g/ha [1, 6]: 0 to 29%
pest or weed control at 140 g/ha [1, 6]: 0 to 29%
pest or weed control at 70 g/ha [1, 7]: 0 to 29%
pest or weed control at 140 g/ha [1, 7]: 0 to 29%
pest or weed control at 70 g/ha [1, 8]: 60 to 74%
pest or weed control at 140 g/ha [1, 8]: 60 to 74%
pest or weed control at 70 g/ha [1, 9]: 0 to 29%
pest or weed control at 140 g/ha [1, 9]: 0 to 29%
pest or weed control at 70 g/ha [2, 10]: 0 to 29%
pest or weed control at 140 g/ha [2, 10]: 0 to 29%
pest or weed control at 70 g/ha [2, 11]: 0 to 29%
pest or weed control at 140 g/ha [2, 11]: 0 to 29%
pest or weed control at 70 g/ha [2, 12]: 0 to 29%
pest or weed control at 140 g/ha [2, 12]: 0 to 29%
pest or weed control at 70 g/ha [2, 13]: 0 to 29%
pest or weed control at 140 g/ha [2, 13]: 0 to 29%
pest or weed control at 70 g/ha [2, 14]: 0 to 29%
pest or weed control at 140 g/ha [2, 14]: 0 to 29%
pest or weed control at 70 g/ha [2, 15]: 0 to 29%
pest or weed control at 140 g/ha [2, 15]: 0 to 29%
pest or weed control at 70 g/ha [2, 16]: 0 to 29%
pest or weed control at 140 g/ha [2, 16]: 0 to 29%
pest or weed control at 70 g/ha [2, 17]: 0 to 29%
pest or weed control at 140 g/ha [2, 17]: 0 to 29%

SMILES: COC(=O)c1nc(-c2ccc(Cl)c(F)c2C(=O)O)cc(N)c1Cl [Compound 91, 6-(4-amino-5-chloro-6-(methoxycarbonyl)pyridin-2-yl)-3-chloro-2-fluorobenzoic acid]
pest or weed control at 70 g/ha [1, 3]: 0 to 29%
pest or weed control at 140 g/ha [1, 3]: 0 to 29%
pest or weed control at 70 g/ha [1, 4]: 0 to 29%
pest or weed control at 140 g/ha [1, 4]: 0 to 29%
pest or weed control at 70 g/ha [1, 5]: 0 to 29%
pest or weed control at 140 g/ha [1, 5]: 0 to 29%
pest or weed control at 70 g/ha [1, 6]: 0 to 29%
pest or weed control at 140 g/ha [1, 6]: 0 to 29%
pest or weed control at 70 g/ha [1, 7]: 0 to 29%
pest or weed control at 140 g/ha [1, 7]: 0 to 29%
pest or weed control at 70 g/ha [1, 8]: 0 to 29%
pest or weed control at 140 g/ha [1, 8]: 0 to 29%
pest or weed control at 70 g/ha [1, 9]: 0 to 29%
pest or weed control at 140 g/ha [1, 9]: 0 to 29%
pest or weed control at 70 g/ha [2, 10]: 0 to 29%
pest or weed control at 140 g/ha [2, 10]: 0 to 29%
pest or weed control at 70 g/ha [2, 11]: 0 to 29%
pest or weed control at 140 g/ha [2, 11]: 0 to 29%
pest or weed control at 70 g/ha [2, 12]: 0 to 29%
pest or weed control at 140 g/ha [2, 12]: 0 to 29%
pest or weed control at 70 g/ha [2, 13]: 0 to 29%
pest or weed control at 140 g/ha [2, 13]: 0 to 29%
pest or weed control at 70 g/ha [2, 14]: 0 to 29%
pest or weed control at 140 g/ha [2, 14]: 0 to 29%
pest or weed control at 70 g/ha [2, 15]: 0 to 29%
pest or weed control at 140 g/ha [2, 15]: 0 to 29%
pest or weed control at 70 g/ha [2, 16]: 0 to 29%
pest or weed control at 140 g/ha [2, 16]: 0 to 29%
pest or weed control at 70 g/ha [2, 17]: 0 to 29%
pest or weed control at 140 g/ha [2, 17]: 0 to 29%

SMILES: Nc1cc(-c2ccc(Cl)c(Cl)c2Cl)nc(C(=O)O)c1Cl [Compound 93]
pest or weed control at 70 g/ha [1, 3]: 85 to 94%
pest or weed control at 140 g/ha [1, 3]: 85 to 94%
pest or weed control at 70 g/ha [1, 4]: 95 to 100%
pest or weed control at 140 g/ha [1, 4]: 95 to 100%
pest or weed control at 70 g/ha [1, 5]: 95 to 100%
pest or weed control at 140 g/ha [1, 5]: 95 to 100%
pest or weed control at 70 g/ha [1, 6]: 85 to 94%
pest or weed control at 140 g/ha [1, 6]: 95 to 100%
pest or weed control at 70 g/ha [1, 7]: 95 to 100%
pest or weed control at 140 g/ha [1, 7]: 95 to 100%
pest or weed control at 70 g/ha [1, 8]: 60 to 74%
pest or weed control at 140 g/ha [1, 8]: 75 to 84%
pest or weed control at 70 g/ha [1, 9]: 60 to 74%
pest or weed control at 140 g/ha [1, 9]: 0 to 29%
pest or weed control at 70 g/ha [2, 10]: 0 to 29%
pest or weed control at 140 g/ha [2, 10]: 0 to 29%
pest or weed control at 70 g/ha [2, 11]: 60 to 74%
pest or weed control at 140 g/ha [2, 11]: 60 to 74%
pest or weed control at 70 g/ha [2, 12]: 30 to 44%
pest or weed control at 140 g/ha [2, 12]: 30 to 44%
pest or weed control at 70 g/ha [2, 13]: 0 to 29%
pest or weed control at 140 g/ha [2, 13]: 0 to 29%
pest or weed control at 70 g/ha [2, 14]: 0 to 29%
pest or weed control at 140 g/ha [2, 14]: 0 to 29%
pest or weed control at 70 g/ha [2, 15]: 0 to 29%
pest or weed control at 140 g/ha [2, 15]: 0 to 29%
pest or weed control at 70 g/ha [2, 16]: 45 to 59%
pest or weed control at 140 g/ha [2, 16]: 60 to 74%
pest or weed control at 70 g/ha [2, 17]: 30 to 44%
pest or weed control at 140 g/ha [2, 17]: 30 to 44%
